From article PMC10525312, “Identification of a Novel Bioactive Peptide Derived from Frozen Chicken Breast Hydrolysate and the Utilization of Hydrolysates as Biopreservatives” (Biology, 2023)

Legend:
[1] = test system: ACE; conditions: peptides after in vitro gastrointestinal digestion of chicken meat; read-out: ACE inhibitory activity IC50; cited from earlier work
Excerpt: The ACE inhibitory activity of C25 was more po ...

[2] = commercial food antioxidants; cited from earlier work
Excerpt: Free radicals can be produced as a result of lipid oxidation, causing major health issues and having a negative impact on food quality. One of the solutions to prevent lipid oxidation is the use of protein hydrolysates.

[3] = test system: Pseudomonas putida ATCC 12633^T; assay: MIC, broth microdilution assay, Pseudomonas putida; format: cell-based; conditions: C25, Luria Bertani medium, OD 620 nm, twofold dilutions
Excerpt: (§1) The following indicator bacteria were used to determine the minimum inhibitory concentrations (MICs) as described by Wiegand et al. and Maky and Zendo [14] by using a broth microdilution assay. Weizmannia (Bacillus) coagulans JCM 2257^T, Salmonella enterica serovar Typhimurium NBRC 13243^T, Listeria innocua ATCC 33090^T, Proteus vulgaris F24B [24] and Escherichia coli JM109 were cultivated in Tryptic Soy Broth (BD, Sparks, MD, USA) supplemented with 0.6% yeast extract. Enterococcus faecalis JCM 5803^T was cultivated in MRS medium (Oxoid, Basingstoke, UK), while Pseudomonas putida ATCC 12633^T was cultivated in Luria Bertani medium (BD). Briefly, the bacterial inhibition was assessed at an optical density at 620 nm using an Infinite F200 Pro microplate reader (Tecan, Männedorf, Switzerland) after the indicator strains were cultured with twofold serial dilutions of chicken hydrolysates and C25.

[4] = DPPH antioxidant activity assay (DPPH antioxidant assay kit); format: biochemical; conditions: 25 °C for 30 min in the dark, absorbance 450 nm
Method: The antioxidant activity of the chicken hydrolysate and C25 was assessed utilizing a DPPH antioxidant assay kit (Dojindo Laboratories) as described in the instructions provided by the manufacturer and as elaborated by Maky and Zendo [14]. Briefly, 20 µL of the investigated samples was applied to a microtiter plate and 80 µL of assay buffer, 100 µL of ethanol and 100 µL of DPPH working solution were mixed with the samples. Then, the plate was incubated at 25 °C for 30 min in the dark. The absorbance was measured by using a Sunrise microplate absorbance reader (Tecan) at 450 nm.

[5] = test system: Listeria innocua ATCC 33090^T; assay: MIC, broth microdilution assay, Listeria innocua; format: cell-based; conditions: C25, Tryptic Soy Broth + 0.6% yeast extract, OD 620 nm, twofold dilutions
Excerpt: as §1

[6] = test system: Weizmannia coagulans JCM 2257^T; assay: MIC, broth microdilution assay, Weizmannia coagulans; format: cell-based, Weizmannia (Bacillus) coagulans; conditions: C25, Tryptic Soy Broth + 0.6% yeast extract, OD 620 nm, twofold dilutions
Excerpt: as §1

[7] = test system: Salmonella enterica serovar Typhimurium NBRC 13245^T; assay: MIC, broth microdilution assay, Salmonella Typhimurium; format: cell-based; conditions: C25, Tryptic Soy Broth + 0.6% yeast extract, OD 620 nm, twofold dilutions
Excerpt: as §1

[8] = test system: Enterococcus faecalis JCM 5803^T; assay: MIC, broth microdilution assay, Enterococcus faecalis; format: cell-based; conditions: C25, MRS medium, OD 620 nm, twofold dilutions
Excerpt: as §1

For KPLL, which IC50 [1] is on record?
Its IC50 is 12 µM.

Which “Antioxidant activity IC50” value [2] does the source give for `Cc1cc(C(C)(C)C)c(O)c(C(C)(C)C)c1` [butylated hydroxytoluene (BHT), butylated hydroxytoluene] here?
The value was 202.35 µg/mL.

With ELFTT as the molecule, how does the IC50 [1] read?
The IC50 was 6.35 µM.

Which “MIC (class symbol)” value [3] does the source give for H-IHAEEILDIRGNPTVEVDLHTAKGH-OH [C25] here?
Its value is “NA ^2 (NA ^2 > 24 μg/mL)”.

What about the “Antioxidant activity (in words)” value [4] of the same molecule?
Its value is “no activity was observed”.

And the “MIC (class symbol)” value [5]?
Its value is “NA ^2 (NA ^2 > 24 μg/mL)”.

What about the “MIC (class symbol)” value [6] of the same molecule?
The value was “NA ^2 (NA ^2 > 24 μg/mL)”.

And the “MIC (class symbol)” value [7]?
Its value is “NA ^2 (NA ^2 > 24 μg/mL)”.

What about the “MIC (class symbol)” value [8] of the same molecule?
Its value is “NA ^2 (NA ^2 > 24 μg/mL)”.

Which “Antioxidant activity IC50” value [2] does the source give for `COc1ccc(O)c(C(C)(C)C)c1` [Butylated hydroxyanisole (BHA), Butylated hydroxyanisole] here?
The value was 112.05 µg/mL.
